{"source": "patent US12350294B2", "about": "“Medium comprising serum replacement, IGF1, STAT3 activator and adrenal gland hormone without BFGF or rock inhibitor for producing corneal endothelial substitute cells from iPS cells and a method thereof” (KEIO UNIVERSITY, priority 2018, dated 2025)", "type_in_all_cases": "cell-based, human", "key": {"[1]": {"system": "iPS cells (FF-I01s04 line)", "assay": "Differentiation induction inhibitory activity of ROCK inhibitor (immunostaining)", "conditions": "medium containing fasudil 50 μM", "procedure": "In the same manner as in Example 2 except that a medium containing fasudil (50 μM), which is a ROCK inhibitor, was used, the expression of ATP1A1 and ZO-1 was examined."}, "[2]": {"system": "iPS cells (FF-I01s04 line)", "assay": "Differentiation induction inhibitory activity of bFGF (quantitative PCR and immunostaining)", "procedure": "In the same manner as in Example 1 except that a medium containing bFGF (2 ng/mL) was used, the expression of each gene was quantified. As is clear from the results, when bFGF was added, an increase in ATPA1 or NR3C2 expression was not observed, and therefore an increase in ATP1A1 expression, which is important as the function of corneal endothelial cells, was not observed, either.\nThe expression of ATP1A1 and ZO-1 in the cells cultured in a medium containing bFGF was examined in the same manner as in Example 2."}, "iPS cells (FF-I01s04)": {"system": "iPS cells (FF-I01s04)", "assay": "Effect of TGF-beta 1 added to the induction medium, immunostaining after passage", "conditions": "TGF-beta 1 1 ng/mL added to induction medium", "procedure": "Using a medium (hereinafter referred to as CECSi cell induction (+T) medium) obtained by adding TGF-beta 1 (R&D System Inc., #240-GMP (1 ng/mL)) to the differentiation induction medium prepared in Example 1, the effect thereof was investigated.\nInduction of iPS cells (FF-I01s04) was started using CECSi cell induction medium or CECSi cell induction (+T) medium, and the first passage was performed on day 11 and the second passage was performed on […] from the start of induction. At the time of passage, the cells were collected using Accutase (Nacalai Tesque #12679-54), and suspended and seeded at a density of 1.5×10^5 cells/cm^2 in a 35 mm dish or 100 mm dish coated with iMatrix 511 at a concentration of 3 μg/ml, without changing the previous medium.\nAt day 15 (after the first passage) and day 17 (after the second passage) from the start of induction, the expression state of N-cadherin and PITX2 was examined by immunostaining in the same manner as in Example 2."}, "[3]": {"conditions": "immunostaining, medium containing bFGF"}, "[4]": {"conditions": "quantitative PCR, medium containing bFGF 2 ng/mL, day 12"}}, "data": [{"compound": "O=S(=O)(c1cccc2cnccc12)N1CCCNCC1", "note": "[fasudil]", "values": [{"measurement": "expression of ATP1A1 in the cellular membrane", "setting": "[1]", "result": "low"}, {"measurement": "expression of ZO-1 and cell shape", "setting": "[1]", "result": "Elongated cells poorly expressing ZO-1 appeared"}]}, {"compound": "bFGF: basic fibroblast growth factor", "values": [{"measurement": "expression of ATP1A1", "setting": "[2]; [3]", "result": "remarkably low"}, {"measurement": "expression of ZO-1 and cell shape", "setting": "[2]; [3]", "result": "Elongated cells poorly expressing ZO-1 appeared"}, {"measurement": "increase in ATP1A1 expression", "setting": "[2]; [4]", "result": "not observed"}, {"measurement": "increase in ATPA1 or NR3C2 expression", "setting": "[2]; [4]", "result": "not observed"}]}, {"compound": "TGF-beta 1: isoform of transforming growth factor beta, protein added to the medium", "values": [{"measurement": "endothelial morphology after passage", "setting": "iPS cells (FF-I01s04); day 15 and day 17", "result": "could be maintained"}, {"measurement": "expression of N-cadherin after passage", "setting": "iPS cells (FF-I01s04); day 15 and day 17, after first and second passage", "result": "maintained"}]}]}
